In brackets after ≈: the same amount, converted by molar mass.
Experiments:
[1] = tested on: Enterobacter sp. K-1972-1; test: MIC, agar dilution (called standard agar well diffusion assay); type: cell-based; details: SP.K19721, nutrient agar, 37°C, 24 hours
Protocol: (§1) In this assay, the minimal inhibitory concentration (MIC) was determined by using twofold dilutions of the compound in nutrient agar. One ml. of each dilution was placed in a sterile Petri dish; 9 ml. of nutrient agar was added to each dish. Five hour cultures of the indicated organism in Trypticase Soy Broth were diluted 10^^-2 in nutrient broth. This dilution of each culture was transferred to the surface of the plates by using a Steers replicating device. […] The MIC of D-3,6-diaminohexanoic acid 2-(carboxymethyl)-2 -methylhydrazide against the indicated organisms are set forth in Table I below.

[2] = tested on: Enterococcus (S. faecalis) Isenberg; test: as above; type: cell-based; details: nutrient agar, 37°C, 24 hours
Protocol: as §1

[3] = tested on: Escherichia coli K-1972-1; test: as above; type: cell-based; details: K19721, nutrient agar, 37°C, 24 hours
Protocol: as §1

[4] = tested on: Escherichia coli K-1972-2; test: as above; type: cell-based; details: K19722, nutrient agar, 37°C, 24 hours
Protocol: as §1

[5] = tested on: Escherichia coli No. 311; test: as above; type: cell-based; details: nutrient agar, 37°C, 24 hours
Protocol: as §1

[6] = tested on: Herellea vaginicola Hughes; test: as above; type: cell-based; details: nutrient agar, 37°C, 24 hours
Protocol: as §1

[7] = tested on: Herellea vaginicola Washington 885-863; test: as above; type: cell-based; details: nutrient agar, 37°C, 24 hours
Protocol: as §1

[8] = tested on: Klebsiella pneumoniae AD; test: as above; type: cell-based; details: nutrient agar, 37°C, 24 hours
Protocol: as §1

[9] = tested on: Klebsiella pneumoniae K-1972-2; test: as above; type: cell-based; details: K19722, nutrient agar, 37°C, 24 hours
Protocol: as §1

[10] = tested on: Proteus mirabilis K-1972-12; test: as above; type: cell-based; details: K197212, nutrient agar, 37°C, 24 hours
Protocol: as §1

[11] = tested on: Proteus mirabilis K-1972-16; test: as above; type: cell-based; details: K197216, nutrient agar, 37°C, 24 hours
Protocol: as §1

[12] = tested on: Proteus mirabilis No. 4361; test: as above; type: cell-based; details: nutrient agar, 37°C, 24 hours
Protocol: as §1

[13] = tested on: Proteus vulgaris K-1972; test: as above; type: cell-based; details: K1972, nutrient agar, 37°C, 24 hours
Protocol: as §1

[14] = tested on: Pseudomonas aeruginosa 12-4-4; test: as above; type: cell-based; details: 1244, nutrient agar, 37°C, 24 hours
Protocol: as §1

[15] = tested on: Pseudomonas aeruginosa PA7; test: as above; type: cell-based; details: nutrient agar, 37°C, 24 hours
Protocol: as §1

[16] = tested on: Salmonella enteritidis K-1972; test: as above; type: cell-based; details: Salmonella enterica, nutrient agar, 37°C, 24 hours
Protocol: as §1

[17] = tested on: Salmonella typhimurium K-1972; test: as above; type: cell-based; details: Salmonella enterica, nutrient agar, 37°C, 24 hours
Protocol: as §1

[18] = tested on: Serratia marcescens Finland; test: as above; type: cell-based; details: nutrient agar, 37°C, 24 hours
Protocol: as §1

[19] = tested on: Serratia marcescens K132; test: as above; type: cell-based; details: nutrient agar, 37°C, 24 hours
Protocol: as §1

[20] = tested on: Shigella flexneri (2a) RB; test: as above; type: cell-based; details: nutrient agar, 37°C, 24 hours
Protocol: as §1

[21] = tested on: Shigella flexneri (5) Citarella; test: as above; type: cell-based; details: nutrient agar, 37°C, 24 hours
Protocol: as §1

[22] = tested on: Staphylococcus aureus Jackson No. 4; test: as above; type: cell-based; details: nutrient agar, 37°C, 24 hours
Protocol: as §1

[23] = tested on: Staphylococcus aureus Morton No. 1169; test: as above; type: cell-based; details: nutrient agar, 37°C, 24 hours
Protocol: as §1

[24] = tested on: Candida albicans E 83; test: Zone of inhibition, standard agar well diffusion assay; type: cell-based
Protocol: as §1
(§2) In another representative operation, the standard agar well diffusion assay was repeated with D-3,6-diaminohexanoic acid 2-(carboxymethyl)-2-methylhydrazide except that after incubation the zone of inhibition against the indicated organism is millimeters was determined.

[25] = tested on: Cryptococcus neoformans E 183; test: as above; type: cell-based
Protocol: as §1, §2

[26] = tested on: Enterobacter aerogenes 75; test: as above; type: cell-based
Protocol: as §1, §2

[27] = tested on: Escherichia coli 311; test: as above; type: cell-based
Protocol: as §1, §2

[28] = tested on: Klebsiella pneumoniae AD; test: as above; type: cell-based
Protocol: as §1, §2

[29] = tested on: Microsporum canis ATCC 10214; test: as above; type: cell-based
Protocol: as §1, §2

[30] = tested on: Mycobacterium smegmatis ATCC 606; test: as above; type: cell-based
Protocol: as §1, §2

[31] = tested on: Proteus vulgaris ATCC 9484; test: as above; type: cell-based
Protocol: as §1, §2

[32] = tested on: Pseudomonas aeruginosa ATCC 10145; test: as above; type: cell-based
Protocol: as §1, §2

[33] = tested on: Salmonella typhosa ATCC 6539; test: as above; type: cell-based
Protocol: as §1, §2

[34] = tested on: Staphylococcus aureus Rose ATCC 14154; test: as above; type: cell-based
Protocol: as §1, §2

[35] = tested on: Trichophyton mentagrophytes E11; test: as above; type: cell-based
Protocol: as §1, §2

[36] = tested on: Trichophyton tonsurans NIH 662; test: as above; type: cell-based
Protocol: as §1, §2

[37] = tested on: Proteus mirabilis 4671; test: Systemic lethal infection in mice, Proteus mirabilis 4671; type: in vivo, Charles River CD1 female mice; details: for Alive/Total Mice Tested 7 Days After Infection: 1 day prior to and immediately after infection
Protocol: (§3) The infections were administered to the mice as follows:
Proteus mirabilis 4671: intraperitoneal injection of a lethal dose consisting of 0.5 ml. of a 10^^-1.6 trypticase soy dilution of a 5 hour trypticase soy broth culture.
(§4) The D-3,6-diaminohexanoic acid 2-(carboxymethyl)-2-methylhydrazide was administered as follows:
Proteus mirabilis 4671: 0.5 ml. dose suspended in 0.2% aqueous agar was administered to groups of Charles River CD1 female mice, weighing 18-22 gm., 1 day prior to infection and then in a second dose immediately after infection at the levels indicated in Table III below.

[38] = tested on: Escherichia coli 311; test: Systemic lethal infection in mice, Escherichia coli 311; type: in vivo, Charles River CD1 female mice; details: for Alive/Total Mice Tested 7 Days After Infection: immediately after infection
Protocol: as §3
Escherichia coli 311: intraperitoneal infection of a lethal dose consisting of 0.5 ml. of a 10^^-3 trypticase soy dilution of a 5 hour trypticase soy broth culture.
as §4
Escherichia coli 311: 0.5 ml. dose suspended in 0.2% aqueous agar was administered to groups of Charles River CD1 female mice, weighing 18-22 gm., immediately after infection at the levels indicated in Table III below.

[39] = tested on: standard laboratory microorganisms; test: Standard agar well diffusion assay against a variety of standard laboratory microorganisms; type: cell-based

In the case of CN(CC(=O)O)NC(=O)C[C@H](N)CCCN [D-3,6-diaminohexanoic acid 2-(carboxymethyl)-2-methylhydrazide], the MIC [1] is reported as 32 µg/mL (≈ 138 µM), the MIC [2] is reported as > 128 µg/mL and the MIC [3] is reported as 16 µg/mL (≈ 68.9 µM). For the same molecule, the MIC [4] was 16 µg/mL (≈ 68.9 µM), the MIC [5] was 16 µg/mL (≈ 68.9 µM) and the MIC [6] was 32 µg/mL (≈ 138 µM). For the same molecule, the MIC [7] was 32 µg/mL (≈ 138 µM), the MIC [8] was 4 µg/mL (≈ 17.2 µM) and the MIC [9] was 32 µg/mL (≈ 138 µM). It also gave an MIC [10] of 64 µg/mL (≈ 276 µM), an MIC [11] of 64 µg/mL (≈ 276 µM) and an MIC [12] of 64 µg/mL (≈ 276 µM). For the same molecule, the MIC [13] was 64 µg/mL (≈ 276 µM), the MIC [14] was 64 µg/mL (≈ 276 µM) and the MIC [15] was 64 µg/mL (≈ 276 µM). The MIC [16] was 32 µg/mL (≈ 138 µM), the MIC [17] was 32 µg/mL (≈ 138 µM) and the MIC [18] was 64 µg/mL (≈ 276 µM). The MIC [19] was 32 µg/mL (≈ 138 µM), the MIC [20] was 4 µg/mL (≈ 17.2 µM) and the MIC [21] was 64 µg/mL (≈ 276 µM). The MIC [22] was 64 µg/mL (≈ 276 µM), the MIC [23] was 32 µg/mL (≈ 138 µM) and the “Zone of Inhibition” value [24] was 50 mm. For the same molecule, the “Zone of Inhibition” value [25] was 10 mm, the “Zone of Inhibition” value [26] was 50 mm and the “Zone of Inhibition” value [27] was 25 mm. The “Zone of Inhibition” value [28] was 10 mm, the “Zone of Inhibition” value [29] was 250 mm and the “Zone of Inhibition” value [30] was 100 mm. The “Zone of Inhibition” value [31] was 25 mm, the “Zone of Inhibition” value [32] was 50 mm and the “Zone of Inhibition” value [33] was 25 mm. For the same molecule, the “Zone of Inhibition” value [34] was 100 mm, the “Zone of Inhibition” value [35] was 100 mm and the “Zone of Inhibition” value [36] was 25 mm. The “Alive/Total Mice Tested 7 Days After Infection” value ([37]; 64 mg./kg. subcutaneous) was 5/5, the “Alive/Total Mice Tested 7 Days After Infection” value ([37]; 128 mg./kg. subcutaneous) was 5/5 and the “Alive/Total Mice Tested 7 Days After Infection” value ([37]; 256 mg./kg. subcutaneous) was 5/5. The “in vivo activity against systemic lethal infection” value ([37]; Proteus mirabilis infection in mice) was “controlled systemic lethal infections”, the “Alive/Total Mice Tested 7 Days After Infection” value ([38]; 4 mg./kg. subcutaneous) was 0/5 and the “Alive/Total Mice Tested 7 Days After Infection” value ([38]; 8 mg./kg. subcutaneous) was 0/5. The “Alive/Total Mice Tested 7 Days After Infection” value ([38]; 16 mg./kg. subcutaneous) was 0/5, the “Alive/Total Mice Tested 7 Days After Infection” value ([38]; 32 mg./kg. subcutaneous) was 3/5 and the “Alive/Total Mice Tested 7 Days After Infection” value ([38]; 64 mg./kg. subcutaneous) was 5/5. The “in vivo activity against systemic lethal infection” value ([38]; Escherichia coli infection in mice) was “controlled systemic lethal infections” and the “antibacterial and antifungal activity in vitro” value [39] was “broad-spectrum antibacterial and antifungal activity in vitro”.
